Values after ≈ are worked out from the molar mass of the structure shown.
Key:
Candida albicans [1] = assay: Antifungal activity against Candida albicans ATCC SC5314 by broth microdilution assay; assay type: functional
Candida albicans [2] = assay: Antifungal activity against Candida albicans CPCC 400523 by broth microdilution assay; assay type: functional
Cryptococcus neoformans [3] = assay: Antifungal activity against Cryptococcus neoformans cgmcc 2.3161 by broth microdilution assay; assay type: functional
Aspergillus fumigatus = assay: Antifungal activity against Aspergillus fumigatus cgmcc 3.7795 by broth microdilution assay; assay type: functional
Candida tropicalis = assay: Antifungal activity against Candida tropicalis cgmcc 2.3739 by broth microdilution assay; assay type: functional
Candida albicans [4] = assay: Antifungal activity against fluconazole-resistant Candida albicans 100 by broth microdilution assay; assay type: functional
Candida albicans [5] = assay: Antifungal activity against fluconazole-resistant Candida albicans 103 by broth microdilution assay; assay type: functional
[6] = target: T1, Lanosterol 14-alpha demethylase (Candida albicans (strain SC5314 / ATCC MYA-2876) (Yeast), UniProt P10613); assay: Inhibition of CYP51 in Candida albicans ATCC SC5314 assessed as ergosterol composition of the total sterol fraction in membrane at 8 ug/ml after 16 hrs by GC-MS analysis (reference value: 89.6%); set-up: scale not given: the % may be the effect or the level left; conditions: candida albicans sc5314, 16 h
T1 sequence (P10613 whole entry): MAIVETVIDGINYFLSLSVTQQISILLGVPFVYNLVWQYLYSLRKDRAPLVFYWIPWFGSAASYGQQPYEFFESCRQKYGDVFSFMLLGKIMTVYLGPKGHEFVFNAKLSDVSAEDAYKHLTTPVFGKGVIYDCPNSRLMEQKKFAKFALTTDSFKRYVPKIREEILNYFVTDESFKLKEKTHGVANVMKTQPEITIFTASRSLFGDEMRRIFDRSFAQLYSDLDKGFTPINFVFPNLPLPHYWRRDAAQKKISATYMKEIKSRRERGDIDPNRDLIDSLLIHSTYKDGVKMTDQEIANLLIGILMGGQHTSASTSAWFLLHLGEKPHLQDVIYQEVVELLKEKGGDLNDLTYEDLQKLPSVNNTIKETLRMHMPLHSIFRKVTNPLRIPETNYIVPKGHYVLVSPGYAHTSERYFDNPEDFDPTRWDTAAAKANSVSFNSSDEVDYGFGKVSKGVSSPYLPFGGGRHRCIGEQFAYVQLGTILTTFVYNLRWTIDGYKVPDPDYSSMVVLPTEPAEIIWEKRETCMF

[7] = target: T1, Lanosterol 14-alpha demethylase; assay: Inhibition of CYP51 in Candida albicans ATCC SC5314 assessed as obtusifoliol composition of the total sterol fraction in membrane at 8 ug/ml after 16 hrs by GC-MS analysis relative to control; set-up: scale not given: the % may be the effect or the level left; conditions: candida albicans sc5314, 16 h
[8] = target: T1, Lanosterol 14-alpha demethylase; assay: Inhibition of CYP51 in Candida albicans ATCC SC5314 assessed as lanosterol composition of the total sterol fraction in membrane at 8 ug/ml after 16 hrs by GC-MS analysis (reference value: 2.9%); set-up: scale not given: the % may be the effect or the level left; conditions: candida albicans sc5314, 16 h
[9] = target: T1, Lanosterol 14-alpha demethylase; assay: Inhibition of CYP51 in Candida albicans ATCC SC5314 assessed as eburicol composition of the total sterol fraction in membrane at 8 ug/ml after 16 hrs by GC-MS analysis relative to control; set-up: scale not given: the % may be the effect or the level left; conditions: candida albicans sc5314, 16 h
[10] = target: T1, Lanosterol 14-alpha demethylase; assay: Inhibition of CYP51 in Candida albicans ATCC SC5314 assessed as sterol composition in membrane at 8 ug/ml after 16 hrs by GC-MS analysis (reference value: 7.5%); set-up: scale not given: the % may be the effect or the level left; conditions: candida albicans sc5314, 16 h
Candida albicans [11] = assay: Antifungal activity against Candida albicans by NCCLS method; assay type: functional
Cryptococcus neoformans [12] = assay: Antifungal activity against Cryptococcus neoformans by NCCLS method; assay type: functional

| SMILES | MIC (Candida albicans [1]) [µg/mL] | MIC (Candida albicans [2]) [µg/mL] | MIC (Cryptococcus neoformans [3]) [µg/mL] | MIC (Aspergillus fumigatus) [µg/mL] | MIC (Candida tropicalis) [µg/mL] | MIC (Candida albicans [4]) [µg/mL] | MIC (Candida albicans [5]) [µg/mL] | Activity [6] [%] | Activity [7] [%] | Activity [8] [%] | Activity [9] [%] | Activity [10] [%] | MIC (Candida albicans [11]) [µg/mL] | MIC (Cryptococcus neoformans [12]) [µg/mL] |
| --- | --- | --- | --- | --- | --- | --- | --- | --- | --- | --- | --- | --- | --- | --- |
| OC(Cn1cncn1)(Cn1cncn1)c1ccc(F)cc1F [FLUCONAZOLE] | 0.5 (≈ 1.63 µM) | 1 (≈ 3.27 µM) | 4 (≈ 13.1 µM) | > 64 | 1 (≈ 3.27 µM) | > 64 | > 64 | 2.1 | 6.9 | 18.3 | 67.9 | 4.8 |  |  |
| COc1ccc2nc(C(=O)N[C@@H](Cn3ccnc3)C(=O)OC(C)C)sc2c1 | 2 (≈ 5.15 µM) | 4 (≈ 10.3 µM) | 32 (≈ 82.4 µM) | > 64 | 2 (≈ 5.15 µM) |  |  |  |  |  |  |  |  |  |
| CC(C)COC(=O)[C@@H](Cn1ccnc1)NC(=O)c1nc2ccc(Br)cc2s1 | 0.125 (≈ 0.277 µM) | 0.25 (≈ 0.554 µM) | 0.5 (≈ 1.11 µM) | > 64 | 0.125 (≈ 0.277 µM) |  |  |  |  |  |  |  |  |  |
| CCNC(=O)[C@H](Cn1ccnc1)NC(=O)c1nc2ccc(Br)cc2s1 | > 64 | > 64 | > 64 | > 64 | > 64 |  |  |  |  |  |  |  |  |  |
| CC(C)COC(=O)[C@H](Cn1ccnc1)NC(=O)c1nc2ccc(Br)cc2s1 | 0.125 (≈ 0.277 µM) | 0.25 (≈ 0.554 µM) | 0.5 (≈ 1.11 µM) | > 64 | 0.25 (≈ 0.554 µM) | 16 (≈ 35.4 µM) | 8 (≈ 17.7 µM) | 2.7 | 6.4 | 18.8 | 63.4 | 8.6 |  |  |
| CC(C)OC(=O)[C@H](Cn1ccnc1)NC(=O)c1nc2ccc(Cl)cc2s1 | 0.25 (≈ 0.636 µM) | 2 (≈ 5.09 µM) | 2 (≈ 5.09 µM) | > 64 | 1 (≈ 2.55 µM) |  |  |  |  |  |  |  |  |  |
| CCC(C)n1ncn(-c2ccc(N3CCN(c4ccc(OCC5COC(Cn6cncn6)(c6ccc(Cl)cc6Cl)O5)cc4)CC3)cc2)c1=O (stereo not given) [ITRACONAZOLE] | 0.125 (≈ 0.177 µM) | 0.5 (≈ 0.709 µM) | 1 (≈ 1.42 µM) | 4 (≈ 5.67 µM) | 0.5 (≈ 0.709 µM) |  |  |  |  |  |  |  |  |  |
| CNC(=O)[C@H](Cn1ccnc1)NC(=O)c1nc2ccc(Br)cc2s1 | > 64 | > 64 | > 64 | > 64 | > 64 |  |  |  |  |  |  |  |  |  |
| Cc1ccc2nc(C(=O)N[C@@H](Cn3ccnc3)C(=O)OCC(C)C)sc2c1 | 0.25 (≈ 0.647 µM) | 2 (≈ 5.17 µM) | 0.5 (≈ 1.29 µM) | > 64 | 0.5 (≈ 1.29 µM) |  |  |  |  |  |  |  |  |  |
| CC(C)OC(=O)[C@H](Cn1ccnc1)NC(=O)c1nc2ccc(Br)cc2s1 | 0.125 (≈ 0.286 µM) | 0.5 (≈ 1.14 µM) | 2 (≈ 4.57 µM) | > 64 | 0.5 (≈ 1.14 µM) | 32 (≈ 73.2 µM) | 16 (≈ 36.6 µM) |  |  |  |  |  |  |  |
| COC(=O)[C@H](Cn1ccnc1)NC(=O)c1nc2ccc(C)cc2s1 | 8 (≈ 23.2 µM) | > 64 | 8 (≈ 23.2 µM) | > 64 | 16 (≈ 46.5 µM) |  |  |  |  |  |  |  |  |  |
| CCOC(=O)[C@H](Cn1ccnc1)NC(=O)c1nc2ccc(C)cc2s1 | 2 (≈ 5.58 µM) | > 64 | 8 (≈ 22.3 µM) | > 64 | 4 (≈ 11.2 µM) |  |  |  |  |  |  |  |  |  |
| CC(C)OC(=O)[C@H](Cn1ccnc1)NC(=O)c1nc2ccc(C(F)(F)F)cc2s1 | 0.125 (≈ 0.293 µM) | 2 (≈ 4.69 µM) | 2 (≈ 4.69 µM) | > 64 | 1 (≈ 2.35 µM) |  |  |  |  |  |  |  |  |  |
| CC(C)OC(=O)[C@H](Cn1ccnc1)NC(=O)c1nc2ccc(F)cc2s1 | 4 (≈ 10.6 µM) | 16 (≈ 42.5 µM) | > 64 | > 64 | 16 (≈ 42.5 µM) |  |  |  |  |  |  |  |  |  |
| CC(C)OC(=O)[C@@H](Cn1ccnc1)NC(=O)c1nc2ccc(Br)cc2s1 | 0.125 (≈ 0.286 µM) | 0.5 (≈ 1.14 µM) | 2 (≈ 4.57 µM) | > 64 | 1 (≈ 2.29 µM) |  |  |  |  |  |  |  |  |  |
| COC(=O)[C@H](Cn1ccnc1)NC(=O)c1nc2ccccc2s1 |  |  |  |  |  |  |  |  |  |  |  |  | 8 (≈ 24.2 µM) | 2 (≈ 6.05 µM) |
| Cc1ccc2nc(C(=O)N[C@@H](Cn3ccnc3)C(=O)OC(C)C)sc2c1 | 0.5 (≈ 1.34 µM) | 4 (≈ 10.7 µM) | 2 (≈ 5.37 µM) | > 64 | 1 (≈ 2.68 µM) |  |  |  |  |  |  |  |  |  |
| CCOC(=O)[C@H](Cn1ccnc1)NC(=O)c1nc2ccc(Cl)cc2s1 | 0.5 (≈ 1.32 µM) | 4 (≈ 10.6 µM) | 8 (≈ 21.1 µM) | > 64 | 2 (≈ 5.28 µM) |  |  |  |  |  |  |  |  |  |
| CC(C)COC(=O)[C@H](Cn1ccnc1)NC(=O)c1nc2ccc(C(F)(F)F)cc2s1 | 0.125 (≈ 0.284 µM) | 2 (≈ 4.54 µM) | 0.5 (≈ 1.14 µM) | > 64 | 0.5 (≈ 1.14 µM) | 32 (≈ 72.7 µM) | 32 (≈ 72.7 µM) |  |  |  |  |  |  |  |
| Cc1cccc2sc(C(=O)N[C@@H](Cn3ccnc3)C(=O)OCC(C)C)nc12 | > 64 | > 64 | > 64 | > 64 | > 64 |  |  |  |  |  |  |  |  |  |
| CCCOC(=O)[C@H](Cn1ccnc1)NC(=O)c1nc2ccc(C)cc2s1 | 0.5 (≈ 1.34 µM) | 4 (≈ 10.7 µM) | 2 (≈ 5.37 µM) | > 64 | 0.5 (≈ 1.34 µM) |  |  |  |  |  |  |  |  |  |
| CC(C)COC(=O)[C@H](Cn1ccnc1)NC(=O)c1nc2ccc(Cl)cc2s1 | 0.125 (≈ 0.307 µM) | 2 (≈ 4.92 µM) | 1 (≈ 2.46 µM) | > 64 | 0.25 (≈ 0.614 µM) |  |  |  |  |  |  |  |  |  |
| CC(C)COC(=O)[C@H](Cn1ccnc1)NC(=O)c1nc2c(C(F)(F)F)cccc2s1 | > 64 | > 64 | > 64 | > 64 | > 64 |  |  |  |  |  |  |  |  |  |
| COc1ccc2nc(C(=O)N[C@@H](Cn3ccnc3)C(=O)OCC(C)C)sc2c1 | 2 (≈ 4.97 µM) | 4 (≈ 9.94 µM) | 8 (≈ 19.9 µM) | > 64 | 1 (≈ 2.48 µM) |  |  |  |  |  |  |  |  |  |
| COC(=O)[C@H](Cn1ccnc1)NC(=O)c1nc2ccc(Cl)cc2s1 | 8 (≈ 21.9 µM) | 16 (≈ 43.9 µM) | 32 (≈ 87.7 µM) | > 64 | 8 (≈ 21.9 µM) |  |  |  |  |  |  |  |  |  |
| CC(C)COC(=O)[C@H](Cn1ccnc1)NC(=O)c1nc2c(Cl)cccc2s1 | > 64 | > 64 | > 64 | > 64 | > 64 |  |  |  |  |  |  |  |  |  |
| CCCOC(=O)[C@H](Cn1ccnc1)NC(=O)c1nc2ccc(Cl)cc2s1 | 0.5 (≈ 1.27 µM) | 2 (≈ 5.09 µM) | 2 (≈ 5.09 µM) | > 64 | 1 (≈ 2.55 µM) |  |  |  |  |  |  |  |  |  |
| CC(C)COC(=O)[C@H](Cn1ccnc1)NC(=O)c1nc2ccc(F)cc2s1 | 0.5 (≈ 1.28 µM) | 16 (≈ 41 µM) | 4 (≈ 10.2 µM) | > 64 | 8 (≈ 20.5 µM) |  |  |  |  |  |  |  |  |  |
